# Experimental data as given in patent US20090093424A1, “Markers for melanoma” (University College Dublin, priority 2006, published 2009).
# Tested on: FABP5 gene expression in melanoma cell lines (WM793 and derivatives)
# Assay: RT-PCR analysis via cycle limitation to assess effect of DAC treatment on FABP5 expression in melanoma cell lines
# Assay type: cell-based, human
# Protocol: Total RNA was extracted from untreated (−DAC) and treated (+DAC) cells and subjected to RT-PCR analysis via a cycle limitation method.
# RNA extracts were pre-digested with DNase I prior to cDNA synthesis using the DNA-Free kit (Ambion). Single-stranded cDNA was synthesized from 1 μg total RNA using the ImProm-II Reverse Transcription kit (Promega). Recombinant RNasin Ribonuclease Inhibitor (20 U/20 μL reaction; Promega) was added to prevent RNase-mediated degradation. Two negative controls were also utilised, namely minus reverse transcriptase enzyme control and minus template control. Following inactivation of reverse transcriptase (RT) at 70° C. for 15 minutes, aliquots of generated single-stranded cDNA were subjected to polymerase chain reaction (PCR) amplification via a cycle limitation approach.
# 18 s was used as a control gene whose expression is unaffected by DAC treatment.
# Primers used were as follows: […]
smiles,measurement,setting,value
"Nc1ncn([C@H]2C[C@H](O)[C@@H](CO)O2)c(=O)n1 [DAC, 5-aza-2′-deoxycytidine]",expression of the FABP5 gene after DAC treatment,"derivative melanoma cell lines of WM793, treated (+DAC) vs untreated (-DAC), 18s control gene, FIG. 6",increased expression of the FABP5 gene
same,"recovery of FABP5 expression by DAC treatment, aggressive derivative lines compared with parental line","more aggressive melanoma cell lines vs parental WM793, FIG. 6",recovered greater expression in these cells than in the parental melanoma cell line
